The subject of one data set is KM12 cells. Put plainly: Cell viability assay (CellTiter-Glo) in KM12 cells. As to conditions: Homo sapiens, 72 h, KM12 cell viability, CellTiter-Glo, 3 days, read-out: IC50. Format: cell-based. (Cellular ATP, detected with luciferase, serves as a proxy for viable cell number.)
In data set [1] the target is T1, TPM3-TRKA fusion protein (Homo sapiens, UniProt P04629+P06753+Q96SW2). The data set can be described thus: Immunoblotting of TPM3-TRKA fusion protein in KM12 cells. Format: cell-based. Set-up: The resulted chimeric proteins always retain the kinase domain of TRK proteins; TPM3 (N-terminal fusion partner, natural gene fusion); endogenous in cells; host or cells: KM12 colon cancer cells. As to conditions: for TRKA protein levels: dose range (FIG. 8A). The procedure:
Specific exemplary bivalent compounds were characterized in KM12 cells. […] Cells were collected, lysed and subject to immunoblotting using an antibody specific to TRK proteins. GAPDH was included as the loading control. DMSO was used as the negative control.
KM12 cells were treated with DMSO or indicated compounds at 100 nM for 16 hours.
KM12 cells were treated with CPD-027, CPD-053, and CPD-060 at 100 nM for indicated incubation time. […]
(§1) KM12 or HEL cells were treated with a dose range of compound TR-123 or TR-123-negative. The latter lost binding to cereblon (CRBN) due to a chemical modification.
KM12 or HEL cells were treated with a single dose of compound TR-123 or combination with MG-132, Bortezomib, MLN4924 or Pomalidomide. […]
(§2) Cultured cells were washed with cold PBS once and lysed in cold RIPA buffer supplemented with protease inhibitors and phosphatase inhibitors (Beyotime Biotechnology). The solutions were then incubated at 4° C. for 30 minutes with gentle agitation to fully lyse cells. For tumor tissues, tumors were cut into small pieces, milled with cold RIPA buffer using a mechanical homogenizer and lysed for 1 hour at 4° C. Cell lysates were centrifuged at 13,000 rpm for 10 minutes at 4° C. and pellets were discarded. Total protein concentrations in the lysates were determined by BCA assays (Beyotime Biotechnology). Cell lysates were mixed with Laemmli loading buffer to 1× and heated at 99° C. for 5 min. Proteins were resolved on SDS-PAGE and visualized by chemiluminescence. Images were taken by a ChemiDoc MP Imaging system (Bio-Rad). Protein bands were quantitated using the software provided by Bio-Rad.

Data set [2] concerns the target T1, TPM3-TRKA fusion protein. Put plainly: Immunoblotting of TPM3-TRKA in KM12 subcutaneous xenograft tumors. Set-up: The resulted chimeric proteins always retain the kinase domain of TRK proteins; TPM3 (N-terminal fusion partner, natural gene fusion); from tissue; host or cells: KM12 subcutaneous xenograft tumors in athymic nude mice. Format: in vivo, Athymic nude mice. As to conditions: for TPM3-TRKA degradation in KM12 subcutaneous tumors: intraperitoneal or oral administration, eight hours after administration (FIG. 10). The procedure: In addition to cultured cells, athymic nude mice bearing KM12 subcutaneous xenograft tumors at the right flank were intraperitoneally treated with 10, 20, or 50 mg/kg CPD-053, CPD-027, or CPD-060. Four hours after drug administration, animals were sacrificed for immunoblotting of TPM3-TPKA in homogenized xenograft tumor masses. The label “a” or “b” represents two different samples of the same xenograft tumor.
Athymic nude mice bearing KM12 subcutaneous xenograft tumors at the right flank were intraperitoneally treated with 10, 20, or 50 mg/kg CPD-053, CPD-027, or CPD-060, as indicated in FIG. 3. Four hours after drug administration, animals were sacrificed for immunoblotting of TPM3-TPKA in homogenized xenograft tumor chunks. The label “a” or “b” represents two different chunks of the same xenograft tumor.
Athymic nude mice bearing KM12 subcutaneous xenograft tumors at the right flank were intraperitoneally or orally treated with bivalent compounds at indicated dose. Eight hours after drug administration, animals were sacrificed for immunoblotting of TPM3-TPKA in homogenized xenograft tumor samples.
as §2
All animal experiments were performed under protocols approved by the Institutional Animal Care and Use Committee (IACUC) of Cullgen. Athymic nude mice (male, 5-weeks old) received 5 million KM12 cells subcutaneously inoculated at the right flank site. Ten days following inoculation, tumors were approximately 500 mm3 in size. Tumor-bearing mice were treated intraperitoneally with vehicle or bivalent compounds at indicated doses. Tumor sizes and body weight of mice were measured every 2 days. In addition, immunoblotting assays were employed to assess the levels of TRKA fusion proteins in xenograft tumors around 500 mm^3 in size following drug administration. At indicated hours after drug administration, selected mice were sacrificed, tumors were resected. Small chunks of tumors were homogenized for immunoblotting of TPM3-TPKA and other proteins as indicated.
Background: In western blotting, separated proteins are transferred to a membrane and probed.

A further data set has as its target T2, wild type TRKA protein (Homo sapiens, UniProt P04629).
T2 construct: immunoblot of wild type TRKA protein expressed by HEL cells; endogenous in cells; host or cells: HEL cells
Put plainly: Immunoblotting of wild type TRKA protein in HEL cells. The conditions noted are these: for TRKA protein levels: dose range (FIG. 8B). Format: cell-based. The procedure: as §1
KM12 or HEL cells were treated with a single dose of compound TR-123 or combination with MG-132, Bortezomib, MLN4924 or Pomalidomide.
as §2

Data set [3] in a line: Mouse pharmacokinetic (PK) studies. The conditions noted are these: single 20 mg/kg intraperitoneal injection, mice, over 12 hours (FIG. 11); 20 mg/kg. Format: in vivo. As for the experimental part: To investigate the pharmacokinetics of bi-functional compounds, exemplified by TR-123, a single 20 mg/kg intraperitoneal injection was evaluated. […] Additionally, doses of 2 mg/kg TR-198 via intravenous injection and 20 mg/kg TR-198 via oral gavage were evaluated in mice.
A single 20 mg/kg intraperitoneal injection of compound TR-123 was evaluated. Plasma concentrations of TR-123 reported at each of the 6 time points (30 min, 1 h, 2 h, 4 h, 8 h, and 12 h post compound administration) are the average values from 3 test animals.
A single 2 mg/kg intravenous injection and 20 mg/kg oral gavage of TR-198 were evaluated in mice.
Plasma concentrations of TR-198 reported at each of the 6 time points (5 min, 30 min, 2 h, 4 h, 8 h, and 12 h post compound administration via IV, 30 min, 1 h, 2 h, 4 h, 8 h, and 12 h post compound administration via p.o.) are the average values from 3 test animals.
Standard PK studies were conducted using male Swiss Albino mice by Sai Life Sciences. A single 20 mg/kg intraperitoneal (IP) injection of compound TR-123 was evaluated. Plasma concentrations of TR-123 reported at each of the 6 time points (30 min, 1 h, 2 h, 4 h, 8 h, and 12 h post dosing) are the average values from 3 test animals. Error bars represent+SD.

Data on seven compounds can be found in patent publication US12065442B2, “Tropomyosin receptor kinase (TRK) degradation compounds and methods of use” (Cullgen (Shanghai), Inc., priority 2018, dated 2024).

“Also recorded” adds a separate entry of the source. Read-outs that look alike come from different tables or passages of the source.

What is called IC50 is the concentration that inhibits the measured activity by half.

T2 sequence (P04629 33-796): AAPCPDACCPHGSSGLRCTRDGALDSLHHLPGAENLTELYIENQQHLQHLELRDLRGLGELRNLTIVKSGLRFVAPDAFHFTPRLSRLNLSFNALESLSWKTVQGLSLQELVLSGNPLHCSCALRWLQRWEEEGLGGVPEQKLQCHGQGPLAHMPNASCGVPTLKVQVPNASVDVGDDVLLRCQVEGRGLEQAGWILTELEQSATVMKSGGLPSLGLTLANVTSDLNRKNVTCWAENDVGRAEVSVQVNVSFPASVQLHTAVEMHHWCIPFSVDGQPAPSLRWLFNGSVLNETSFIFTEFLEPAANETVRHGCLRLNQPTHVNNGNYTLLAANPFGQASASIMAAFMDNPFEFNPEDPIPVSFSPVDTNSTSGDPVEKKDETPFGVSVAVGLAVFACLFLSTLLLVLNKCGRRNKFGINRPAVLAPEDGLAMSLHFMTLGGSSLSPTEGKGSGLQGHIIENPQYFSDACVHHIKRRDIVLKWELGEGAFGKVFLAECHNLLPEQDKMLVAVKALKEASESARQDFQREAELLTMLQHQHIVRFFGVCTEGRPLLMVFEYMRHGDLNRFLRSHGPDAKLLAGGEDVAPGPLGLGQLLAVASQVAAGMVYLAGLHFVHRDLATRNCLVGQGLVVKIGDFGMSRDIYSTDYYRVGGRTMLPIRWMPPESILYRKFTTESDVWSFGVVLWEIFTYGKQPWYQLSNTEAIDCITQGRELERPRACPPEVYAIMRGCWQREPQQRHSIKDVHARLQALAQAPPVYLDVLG
T1 sequence (P06753+P04629 fused): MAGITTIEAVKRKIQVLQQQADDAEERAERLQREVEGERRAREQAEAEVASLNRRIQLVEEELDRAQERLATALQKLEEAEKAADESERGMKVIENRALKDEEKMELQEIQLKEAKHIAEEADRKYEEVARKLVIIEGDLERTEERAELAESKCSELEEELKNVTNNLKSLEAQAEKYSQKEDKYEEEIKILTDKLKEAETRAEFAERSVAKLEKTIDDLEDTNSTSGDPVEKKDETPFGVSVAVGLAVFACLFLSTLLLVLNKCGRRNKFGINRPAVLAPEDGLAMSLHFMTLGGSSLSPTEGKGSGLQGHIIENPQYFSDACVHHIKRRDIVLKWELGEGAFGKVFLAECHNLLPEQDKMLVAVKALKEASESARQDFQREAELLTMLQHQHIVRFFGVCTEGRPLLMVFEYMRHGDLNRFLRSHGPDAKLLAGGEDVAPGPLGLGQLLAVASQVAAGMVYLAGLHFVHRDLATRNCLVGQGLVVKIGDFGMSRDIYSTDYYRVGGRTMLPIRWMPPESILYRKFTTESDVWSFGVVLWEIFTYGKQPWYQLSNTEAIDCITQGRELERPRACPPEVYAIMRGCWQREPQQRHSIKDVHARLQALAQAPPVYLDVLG
T1 sequence (Q96SW2 whole entry, the tested form may be a part): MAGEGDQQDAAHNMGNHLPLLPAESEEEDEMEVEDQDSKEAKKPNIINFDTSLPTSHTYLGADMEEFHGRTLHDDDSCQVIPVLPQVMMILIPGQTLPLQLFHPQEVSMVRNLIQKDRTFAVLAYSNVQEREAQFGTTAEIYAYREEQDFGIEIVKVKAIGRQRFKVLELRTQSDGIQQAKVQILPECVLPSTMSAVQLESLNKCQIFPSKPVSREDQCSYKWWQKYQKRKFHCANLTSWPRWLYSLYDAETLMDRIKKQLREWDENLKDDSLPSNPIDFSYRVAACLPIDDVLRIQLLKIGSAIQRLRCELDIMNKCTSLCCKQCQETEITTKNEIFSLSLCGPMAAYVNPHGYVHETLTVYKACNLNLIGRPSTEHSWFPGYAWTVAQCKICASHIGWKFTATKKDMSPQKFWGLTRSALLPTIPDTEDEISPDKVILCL
T1 sequence (Q16531 whole entry partner, the tested form may be a part): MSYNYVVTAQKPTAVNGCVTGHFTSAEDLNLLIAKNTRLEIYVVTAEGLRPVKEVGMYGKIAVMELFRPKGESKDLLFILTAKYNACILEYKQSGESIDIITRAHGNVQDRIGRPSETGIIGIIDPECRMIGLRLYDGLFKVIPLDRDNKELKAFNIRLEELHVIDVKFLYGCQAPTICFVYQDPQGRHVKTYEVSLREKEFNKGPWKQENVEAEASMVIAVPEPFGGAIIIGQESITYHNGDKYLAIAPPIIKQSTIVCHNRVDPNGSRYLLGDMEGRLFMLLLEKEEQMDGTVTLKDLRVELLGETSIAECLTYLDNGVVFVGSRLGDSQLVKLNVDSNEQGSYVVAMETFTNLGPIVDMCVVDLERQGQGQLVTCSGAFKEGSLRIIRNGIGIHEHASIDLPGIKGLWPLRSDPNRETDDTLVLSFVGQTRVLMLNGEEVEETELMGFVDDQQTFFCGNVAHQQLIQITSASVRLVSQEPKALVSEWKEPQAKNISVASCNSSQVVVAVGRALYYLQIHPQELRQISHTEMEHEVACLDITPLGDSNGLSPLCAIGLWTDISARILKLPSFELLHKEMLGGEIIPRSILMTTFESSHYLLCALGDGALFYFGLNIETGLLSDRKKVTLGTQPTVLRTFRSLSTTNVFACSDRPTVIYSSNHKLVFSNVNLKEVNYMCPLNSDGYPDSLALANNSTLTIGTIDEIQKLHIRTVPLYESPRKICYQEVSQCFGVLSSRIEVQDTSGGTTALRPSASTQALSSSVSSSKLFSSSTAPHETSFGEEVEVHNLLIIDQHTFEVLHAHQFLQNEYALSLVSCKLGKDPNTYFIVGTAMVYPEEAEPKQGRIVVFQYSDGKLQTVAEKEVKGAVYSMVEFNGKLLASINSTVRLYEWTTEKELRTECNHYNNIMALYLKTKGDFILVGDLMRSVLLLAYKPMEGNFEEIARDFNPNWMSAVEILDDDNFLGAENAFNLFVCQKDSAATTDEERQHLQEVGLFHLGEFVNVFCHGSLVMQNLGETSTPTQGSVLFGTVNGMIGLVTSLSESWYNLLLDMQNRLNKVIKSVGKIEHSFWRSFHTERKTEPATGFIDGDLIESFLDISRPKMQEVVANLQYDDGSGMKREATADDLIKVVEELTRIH

Regarding `O=C1CCC(N2C(=O)c3cccc(NCCOCCC(=O)N4CCN(c5cccc(-c6cnc7ccc(N8CCC[C@@H]8c8cccc(F)c8)nn67)n5)CC4)c3C2=O)C(=O)N1` (stereo partly drawn) [CPD-027, 2-(2,6-Dioxopiperidin-3-yl)-4-((2-(3-(4-(6-(6-((R)-2-(3-fluorophenyl)pyrrolidin-1-yl)imidazo[1,2-b]pyridazin-3-yl)pyridin-2-yl)piperazin-1-yl)-3-oxopropoxy)ethyl)amino)isoindoline-1,3-dione], in the data set with KM12 cells (Table 2), the IC50 is 4.9 nM. Moreover, on TPM3-TRKA fusion protein [1] (100 nM (FIG. 2)), the “time after adding compound at which significant degradation of TPM3-TRKA was detected” value is 15 min. Also, the TPM3-TRKA protein levels entry on TPM3-TRKA fusion protein [1] (100 nM, 16 hours (FIG. 1A-1C)) was “particularly effective in reducing TPM3-TRKA protein levels”. Moreover, the “TPM3-TRKA protein levels, time course” value at TPM3-TRKA fusion protein [1] (100 nM, indicated incubation time (FIG. 2)) is “rapidly reduced TPM3-TRKA protein levels”. In addition, the “TPM3-TRKA protein levels in KM12 subcutaneous xenograft tumors” value at TPM3-TRKA fusion protein [2] (10, 20, or 50 mg/kg intraperitoneally, single dose, four hours after administration (FIG. 3)) is “significantly reducing TPM3-TRKA protein levels”.

In the case of `O=C1CCC(N2C(=O)c3ccc(NCCCN4CCN(c5cccc(-c6cnc7ccc(N8CCC[C@@H]8c8cccc(F)c8)nn67)n5)CC4)cc3C2=O)C(=O)N1` (stereo partly drawn) [TR-171, 2-(2,6-Dioxopiperidin-3-yl)-5-((3-(4-(6-(6-((R)-2-(3-fluorophenyl)pyrrolidin-1-yl)imidazo[1,2-b]pyridazin-3-yl)pyridin-2-yl)piperazin-1-yl)propyl)amino)isoindoline-1,3-dione], the IC50 in the data set with KM12 cells (Table 3) turned out to be 5.2 nM. Besides, on TPM3-TRKA fusion protein [2], the “TPM3-TRKA degradation in KM12 subcutaneous tumors” value (“TPM3-TRKA degradation” for short) was “exhibited the activities to induce TPM3-TRKA degradation”.

Consider `O=C1CCC(N2C(=O)c3ccc(NCCOCCOCCN4CCN(c5cccc(-c6cnc7ccc(N8CCC[C@H]8c8cccc(F)c8)nn67)n5)CC4)cc3C2=O)C(=O)N1` (stereo partly drawn) [TR-177, 2-(2,6-Dioxopiperidin-3-yl)-5-((2-(2-(2-(4-(6-(6-((S)-2-(3-fluorophenyl)pyrrolidin-1-yl)imidazo[1,2-b]pyridazin-3-yl)pyridin-2-yl)piperazin-1-yl)ethoxy)ethoxy)ethyl)amino)isoindoline-1,3-dione], for which the IC50 in the data set with KM12 cells (Table 3) came to 1.9 nM. Besides, the “TPM3-TRKA degradation” value on TPM3-TRKA fusion protein [2] is on record as “exhibited the activities to induce TPM3-TRKA degradation”.

For `CN1C(=O)CCC(N2C(=O)c3ccc(NCC(=O)N4CCN(c5cccc(-c6cnc7ccc(N8CCC[C@@H]8c8cccc(F)c8)nn67)n5)CC4)cc3C2=O)C1=O` (stereo partly drawn) [TR-123-negative, 5-((2-(4-(6-(6-((R)-2-(3-Fluorophenyl)pyrrolidin-1-yl)imidazo[1,2-b]pyridazin-3-yl)pyridin-2-yl)piperazin-1-yl)-2-oxoethyl)amino)-2-(1-methyl-2,6-dioxopiperidin-3-yl)isoindoline-1,3-dione], the TRKA protein levels result on wild type TRKA protein and at TPM3-TRKA fusion protein [1] was “none or less effects on TRKA protein levels” throughout.

Turning to `O=C1CCC(N2C(=O)c3ccc(NCC(=O)N4CCN(c5cccc(-c6cnc7ccc(N8CCC[C@@H]8c8cccc(F)c8)nn67)n5)CC4)cc3C2=O)C(=O)N1` (stereo partly drawn) [TR-123, 2-(2,6-dioxopiperidin-3-yl)-5-((2-(4-(6-(6-((R)-2-(3-fluorophenyl)pyrrolidin-1-yl)imidazo[1,2-b]pyridazin-3-yl)pyridin-2-yl)piperazin-1-yl)-2-oxoethyl)amino)isoindoline-1,3-dione], the IC50 with KM12 cells (Table 3) is 1.7 nM. The TRKA protein levels result was “reduced TRKA protein levels in a concentration-dependent manner; also recorded: significant degradation of full-length TRKA” at wild type TRKA protein and “reduced TRKA protein levels in a concentration-dependent manner” on TPM3-TRKA fusion protein [1]. At wild type TRKA protein (single dose (FIG. 9B)), the “TRKA degradation in combination with MG-132, Bortezomib, MLN4924 or Pomalidomide” value is “compromised”. Moreover, in data set [3], the plasma exposure entry is on record as “significant plasma exposure”. For the same compound, the “TRKA degradation in combination with MG-132, Bortezomib or MLN4924” value on TPM3-TRKA fusion protein [1] (single dose (FIG. 9A)) was “compromised”. Besides, the “TPM3-TRKA degradation” value at TPM3-TRKA fusion protein [2] was “exhibited the activities to induce TPM3-TRKA degradation”.

As for `O=C1CCC(N2C(=O)c3ccc(CCCN4CCN(c5cccc(-c6cnc7ccc(N8CCC[C@@H]8c8cccc(F)c8)nn67)n5)CC4)cc3C2=O)C(=O)N1` (stereo partly drawn) [TR-172, 2-(2,6-dioxopiperidin-3-yl)-5-(3-(4-(6-(6-((R)-2-(3-fluorophenyl)pyrrolidin-1-yl)imidazo[1,2-b]pyridazin-3-yl)pyridin-2-yl)piperazin-1-yl)propyl)isoindoline-1,3-dione], the IC50 in the data set on KM12 cells (Table 3) is 2 nM. In addition, at TPM3-TRKA fusion protein [2], the “TPM3-TRKA degradation” value was “exhibited the activities to induce TPM3-TRKA degradation”.

Regarding `O=C1CCC(N2C(=O)c3ccc(NCC(=O)N4CCN(c5cccc(-c6cnc7ccc(N8CCC[C@@H]8c8cccc(F)c8)nn67)n5)CC4)cc3C2=O)C(=O)N1` (stereo partly drawn) [TR123], the plasma exposure entry in data set [3] is on record as “good plasma exposure”.
